The values below come from paper PMC7503713, “GANT61 Reduces Hedgehog Molecule (GLI1) Expression and Promotes Apoptosis in Metastatic Oral Squamous Cell Carcinoma Cells” (International Journal of Molecular Sciences, 2020).

Molecules are shown by their SMILES.

Common to all, as to type: cell-based, human
Test [1] deals with HSC3 cells. The test can be described thus: Morphological analysis by flow cytometry (FSC/SSC). Here is the method: (§1) To study the effects of GANT61 on HSC3 cell viability, cycle, and death patterns, 4 mL of cellular solution (containing 0.7 × 10^5 cells/mL) was placed on 6-well plates and incubated overnight, to allow adhesion. […] For cell cycle analysis, the effects of GANT61 on HSC3 cells were also evaluated after 12 h of treatment. Negative controls were treated with the vehicle (0.2% DMSO) used to dilute the GLI inhibitor, and 5-fluorouracil (5-FU, 17 μM) was used as a positive control. All experiments were carried out in duplicate and repeated no less than three times. Cell viability was determined by the trypan blue exclusion method, in which 90 μL aliquots were collected at several incubation periods, stained with 10 μL trypan blue, and counted in a Neubauer chamber, under optical microscopy, at 20× magnification (Olympus CX41 Olympus, Tokyo, Japan).
Morphological analysis of HSC3 cells was performed by flow cytometry, using FSC (size/volume) and SSC (granularity) parameters (FACSDiva). Cells were acquired (10,000 events/sample) and analyzed on a BD LSRFortessa flow cytometer, using the BD FACSDiva software version 6.2 (Becton Dickinson Biosciences, San José, CA, USA). Cellular debris was omitted from our analyses.

A further test relates to CAF 2. The test can be described thus: alamarBlue cytotoxicity assay, cancer-associated fibroblasts CAF 2. The conditions noted are these: CAF 2, alamarBlue, 72 h of incubation. Here is the method:
Two cancer-associated fibroblast populations (CAF1 and CAF2) were obtained as described by Sobral et al. (2011), from fragments of squamous cell carcinoma of the tongue that were removed from patients seen at the UNICAMP School of Dentistry in Piracicaba, São Paulo, Brazil.
Specimens were washed with PBS, fragmented, and placed in 25 cm^2 cell culture flasks containing 1 mL of DMEM medium supplemented with 10% FBS and an antibiotic, and then maintained in an incubator, at 37 °C, under 5% CO2. Cell growth was monitored daily, and the medium was replaced every 2–3 days. […] Type I collagen production as assessed by ELISA was also used as a marker of myofibroblast activity. Both CAF1 and CAF2 primary populations were maintained for a maximum of 12 passages, with CAF phenotype maintenance evaluated through immunocytochemical staining for the α-SMA antibody after each two passages. […]
To assess the cytotoxicity of the GLI inhibitor GANT61 (Sigma-Aldrich, St. Louis, MO, USA) in tumor and non-tumor cell lines, an alamarBlue assay (Sigma-Aldrich Chemical Co, St. Louis, MO, USA) was performed after 72 h of exposure to the inhibitor, as described by Ahmed et al., 1994 [46]. […] Absorbance was measured at 570 nm (reduced) and 595 nm (oxidized) wavelengths, using a Spectramax 190 plate reader (Molecular Devices; Sunnyvale, CA, USA). […]

In test [2] the test system is HSC3 cells. As to the kind of experiment: Phosphatidylserine externalization by flow cytometry (annexin V-FITC/PI). As to the method:
as §1
Following treatment with GANT61, cells were labeled with annexin V-FITC and PI to determine cell viability (classified as viable, early apoptosis, late apoptosis, and necrosis), according to the manufacturer’s protocol (Becton Dickinson Biosciences, San José, CA, USA). Cells were acquired (10,000 events/sample) and analyzed on a BD LSRFortessa flow cytometer, using BD FACSDiva software version 6.2 (Becton Dickinson Biosciences, San José, CA, USA). The proportion of cells undergoing apoptosis was determined by the percentage of annexin labeling as quantified by the FlowJo program, version 10 (Flowjo LCC, Ashland, OR, USA). Cellular debris was omitted from our analyses.

Test [3] has as its system HSC3 cells. As to the kind of experiment: Trypan blue exclusion cell viability assay. As to the method:
as §1

The test system of the next test is HepG2. As to the kind of experiment: alamarBlue cytotoxicity assay, HepG2. To be noted: 72 h of incubation. Here is the method:
(§2) To assess the cytotoxicity of the GLI inhibitor GANT61 (Sigma-Aldrich, St. Louis, MO, USA) in tumor and non-tumor cell lines, an alamarBlue assay (Sigma-Aldrich Chemical Co, St. Louis, MO, USA) was performed after 72 h of exposure to the inhibitor, as described by Ahmed et al., 1994 [46]. Cells were distributed on 96-well plates at a density of 7 × 10^4 cells/mL for adhered cells, and 3 × 10^5 cells/mL for cells in suspension. All tested compounds were dissolved in DMSO, added to wells containing 100 µL of cells in complete medium, and then incubated for 72 h. Eight concentrations of GANT61 (0.19 to 50 µg/mL), Doxorubicin (Laboratory IMA S.A.I.C., Buenos Aires, Argentina), and 5-Fluorouracil (5-FU, Sigma-Aldrich, St. Louis, MO, USA), both used as positive controls at concentrations ranging from 0.03 to 5 µg/mL, were added to respective wells. Cells treated with the vehicle (0.5% DMSO) used to dilute the tested compounds were used as negative controls. Before the end of the incubation period (4 h for cell lines and 24 h for PBMCs), 20 µL of alamarBlue stock solution (resazurin, Sigma-Aldrich, St. Louis, MO, USA) was added to each well. Absorbance was measured at 570 nm (reduced) and 595 nm (oxidized) wavelengths, using a Spectramax 190 plate reader (Molecular Devices; Sunnyvale, CA, USA).
(§3) Statistical analyses were performed, using GraphPad Prism v. 6.03 (GraphPad Software, Inc., San Diego, USA). Data were analyzed according to distribution along the normal Gaussian curve. IC50 values were obtained through non-linear regression, using results from three independent experiments carried out in duplicate. Differences between groups resulting from in vitro assays were evaluated by ANOVA (analysis of variance) testing, followed by the Student–Newman–Keuls test. This study considered a level of significance, corresponding to alpha (α) or “p” value, when results were less than or equal to 5%.

In another test the test system is PBMC. The test can be described thus: alamarBlue cytotoxicity assay, PBMC. To be noted: 72 h of incubation. As to the method:
Human peripheral blood mononuclear cells (PBMC) lymphocytes and monocytes) were obtained from the peripheral blood of healthy, non-smoking volunteers aged 25–35 years. None of the volunteers had used any type of drug or medication for at least 15 days prior to collection. Blood collection (5 mL) was performed in heparinized vials by trained professionals at the Laboratory of Tissue Engineering and Immunopharmacology (LETI, IGM-FIOCRUZ, Salvador, Brazil), using sterile disposable syringes. PBMCs were isolated by a standard protocol described by Dias et al. (2018). The institutional review board of the Gonçalo Moniz Institution, Oswaldo Cruz Foundation (IGM-FIOCRUZ), in Salvador, Bahia, Brazil, approved all experimental protocols (No.031019/2013). All participants provided written informed consent prior to participation in the study.
To assess the cytotoxicity of the GLI inhibitor GANT61 (Sigma-Aldrich, St. Louis, MO, USA) in tumor and non-tumor cell lines, an alamarBlue assay (Sigma-Aldrich Chemical Co, St. Louis, MO, USA) was performed after 72 h of exposure to the inhibitor, as described by Ahmed et al., 1994 [46]. Cells were distributed on 96-well plates at a density of 7 × 10^4 cells/mL for adhered cells, and 3 × 10^5 cells/mL for cells in suspension. All tested compounds were dissolved in DMSO, added to wells containing 100 µL of cells in complete medium, and then incubated for 72 h. […] Absorbance was measured at 570 nm (reduced) and 595 nm (oxidized) wavelengths, using a Spectramax 190 plate reader (Molecular Devices; Sunnyvale, CA, USA).
Statistical analyses were performed, using GraphPad Prism v. […] Data were analyzed according to distribution along the normal Gaussian curve. […] Differences between groups resulting from in vitro assays were evaluated by ANOVA (analysis of variance) testing, followed by the Student–Newman–Keuls test. […]

A further test concerns K562. As to the kind of experiment: alamarBlue cytotoxicity assay, K562. The conditions noted are these: 72 h of incubation. As to the method: as §2, §3
In a further test the test system is HCT-116. As to the kind of experiment: alamarBlue cytotoxicity assay, HCT-116. To be noted: HCT-116, alamarBlue, 72 h of incubation. Here is the method:
as §2, §3

A further test concerns SCC9. As to the kind of experiment: alamarBlue cytotoxicity assay, SCC9. As to the method: as §2, §3

Consider `O=c1[nH]cc(F)c(=O)[nH]1` [5-FU, 5-fluorouracil], for which, in the test with HSC3 cells [1] (HSC3, 17 µM), the “cell morphology (FSC/SSC)” value is “changes consistent with apoptotic death”. In addition, the IC50 was > 192 µM with CAF 2 (Homo sapiens, Fibroblast); 1.3 µM with HepG2 (Homo sapiens); > 192 µM in the test with PBMC (Homo sapiens); 18.1 µM in the test on K562 (Homo sapiens); 4.07 µM with HCT-116 (Homo sapiens); 143 µM with SCC9 (Homo sapiens, SCC-9, 72 h of incubation). Further, the cell apoptosis result in the test with HSC3 cells [2] (5-FU positive control, only after 72 h) is “significantly increased cell apoptosis”. The “number of viable cells” value with HSC3 cells [3] (17 µM, all incubation times) is “reduced the number of viable cells”.

For `CN(C)c1ccccc1CN1CCCN(Cc2ccccc2N(C)C)C1c1ccncc1` [GANT61], the “cell morphology (FSC/SSC)” value in the test with HSC3 cells [1] (HSC3, 18 and 36 µM, 24, 48 and 72 h) is recorded as “cell shrinkage”. Also, the IC50 is 71.5 µM with CAF 2; > 116 µM with HepG2; 87.5 µM in the test on PBMC; > 116 µM in the test with K562; > 116 µM in the test on HCT-116; 83.5 µM with SCC9 (72 h of incubation). Besides, the cell apoptosis entry in the test on HSC3 cells [2] (18 µM, 48 and 72 h) is “significantly increased cell apoptosis”. The “exposure of phosphatidylserine on HSC3 cell surfaces” value in the test on HSC3 cells [2] (36 µM, all times evaluated, vs DMSO (0.2%)) is “significantly higher exposure of phosphatidylserine”. Further, the “viability of HSC3 cells” value in the test with HSC3 cells [3] (18 and 36 µM, 24, 48 and 72 h, vs 0.2% DMSO) is “significantly reduce the viability”.
